Reference: US12364690B2, “Therapeutic agent for bile duct cancer” (NATIONAL CANCER CENTER, priority 2015, dated 2025)
Like-named read-outs stand apart in the source and are kept apart here.

Assays:
[1] = biological target: NIH3T3 cell transfected with FGFR2-BICC1 type2 (Homo sapiens, UniProt P21802, DEL126-151/R152G)
Protocol: (§1) Using the following apparatus, the activity of FGFR inhibitors on the transformation capacity of FGFR2 fusion polypeptide was evaluated.

[2] = biological target: NIH3T3 cells transfected with FGFR2-TXLNA (Homo sapiens, UniProt P21802, DEL126-151/R152G); details: final concentration 0.2 μM; soft agar; FIG. 5 and FIG. 6
Protocol: as §1

[3] = biological target: NIH3T3 cells transfected with FGFR2-KCTD1 (Homo sapiens, UniProt P21802); details: final concentration 0.2 μM; soft agar; FIG. 5 and FIG. 6
Protocol: as §1

[4] = system: NIH3T3 cell line transfected with the FGFR2 fusion gene; experiment: Immunoblot (Western blot) analysis of downstream signal of FGFR2 fusion gene; assay type: cell-based, mouse; details: final concentration of FGFR inhibitor 0.2 μM or 0.5 μM, FIG. 3
Protocol: First, the wild-type FGFR2 fusion gene or KD mutant FGFR2 fusion gene was transfected into the mouse fibroblast cell line NIH3T3 using the retrovirus, and the obtained cell line was cultured in a liquid culture medium. The cultured cell line was subjected to serum starvation, and then treated with a culture medium containing an FGFR inhibitor before extracting the total proteins. Herein, the protein encoded by FGFR2-BICC1 type2, the protein encoded by FGFR2-TXLNA and the protein encoded by FGFR2-KCTD1 are shown in SEQ ID NOs: 6, 2 and 4, respectively.
Next, the NIH3T3 cell line transfected with the FGFR2 fusion gene was subjected to Western blot analysis after adding the FGFR inhibitor to the cell line (the final concentration of the FGFR inhibitor: 0.2 μM or 0.5 μM) and extracting the total proteins similarly.

[5] = Relative body weight in transplant model mice (safety of dosage); assay type: in vivo, mouse; details: 6.25, 12.5, 25 and 50 mg/kg orally once a day; dosage judged as safe
Protocol: Based on the tumor volume on the first day of administration, the mice were grouped so that mean values of the tumor volume of the groups were nearly equal to each other. […]. The Compound A solution was continuously administered orally to the mice in the Compound A administration group once a day at a dosage of 20 mL/kg. On the other hand, only the solvent (water for injection) was similarly administered to the mice in the control group. The Administration was carried out to FGFR2-BICC1 type2 or FGFR2-KCTD1 transplant model mice for 7 days and to FGFR2-TXLNA transplant model mice for 11 days.
On the first day and the last day of the administration, body weight was measured for each mice in the control group and the Compound A administration group. The ratio of the body weight on the last day to the body weight on the first day (relative body weight: RBW) was calculated. When the RBW of the Compound A administration group/the RBW of the control group was 0.9 or more, the dosage was judged as safe. The corresponding dosage was 6.25, 12.5, 25 and 50 mg/kg.

Sequence of NIH3T3 cell transfected with FGFR2-BICC1 type2 (P21802 with tags, fused parts or gaps isoform P21802-22 DEL37-62/R63G): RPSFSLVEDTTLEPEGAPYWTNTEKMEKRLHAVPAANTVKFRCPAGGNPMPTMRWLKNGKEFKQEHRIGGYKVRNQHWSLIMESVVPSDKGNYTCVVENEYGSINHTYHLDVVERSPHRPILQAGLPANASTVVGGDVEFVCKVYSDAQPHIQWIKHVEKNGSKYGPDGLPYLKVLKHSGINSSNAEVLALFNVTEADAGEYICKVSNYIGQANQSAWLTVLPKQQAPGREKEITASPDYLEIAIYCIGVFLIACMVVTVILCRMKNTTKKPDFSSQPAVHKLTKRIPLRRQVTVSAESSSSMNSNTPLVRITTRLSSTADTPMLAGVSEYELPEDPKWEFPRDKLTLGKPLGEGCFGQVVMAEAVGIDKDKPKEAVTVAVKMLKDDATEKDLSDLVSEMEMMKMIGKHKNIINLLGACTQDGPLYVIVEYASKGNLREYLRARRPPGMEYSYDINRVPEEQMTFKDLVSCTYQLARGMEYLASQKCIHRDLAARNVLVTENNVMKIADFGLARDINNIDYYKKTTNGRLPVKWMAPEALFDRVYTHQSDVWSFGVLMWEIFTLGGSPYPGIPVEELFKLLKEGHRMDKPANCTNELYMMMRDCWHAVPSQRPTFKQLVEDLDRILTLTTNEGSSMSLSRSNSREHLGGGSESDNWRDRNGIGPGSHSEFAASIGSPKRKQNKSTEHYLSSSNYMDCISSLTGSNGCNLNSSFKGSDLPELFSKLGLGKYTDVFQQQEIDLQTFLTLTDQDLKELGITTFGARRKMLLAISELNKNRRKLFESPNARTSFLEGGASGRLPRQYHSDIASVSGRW
Sequence of NIH3T3 cells transfected with FGFR2-KCTD1 (P21802 with tags, fused parts or gaps isoform P21802-22): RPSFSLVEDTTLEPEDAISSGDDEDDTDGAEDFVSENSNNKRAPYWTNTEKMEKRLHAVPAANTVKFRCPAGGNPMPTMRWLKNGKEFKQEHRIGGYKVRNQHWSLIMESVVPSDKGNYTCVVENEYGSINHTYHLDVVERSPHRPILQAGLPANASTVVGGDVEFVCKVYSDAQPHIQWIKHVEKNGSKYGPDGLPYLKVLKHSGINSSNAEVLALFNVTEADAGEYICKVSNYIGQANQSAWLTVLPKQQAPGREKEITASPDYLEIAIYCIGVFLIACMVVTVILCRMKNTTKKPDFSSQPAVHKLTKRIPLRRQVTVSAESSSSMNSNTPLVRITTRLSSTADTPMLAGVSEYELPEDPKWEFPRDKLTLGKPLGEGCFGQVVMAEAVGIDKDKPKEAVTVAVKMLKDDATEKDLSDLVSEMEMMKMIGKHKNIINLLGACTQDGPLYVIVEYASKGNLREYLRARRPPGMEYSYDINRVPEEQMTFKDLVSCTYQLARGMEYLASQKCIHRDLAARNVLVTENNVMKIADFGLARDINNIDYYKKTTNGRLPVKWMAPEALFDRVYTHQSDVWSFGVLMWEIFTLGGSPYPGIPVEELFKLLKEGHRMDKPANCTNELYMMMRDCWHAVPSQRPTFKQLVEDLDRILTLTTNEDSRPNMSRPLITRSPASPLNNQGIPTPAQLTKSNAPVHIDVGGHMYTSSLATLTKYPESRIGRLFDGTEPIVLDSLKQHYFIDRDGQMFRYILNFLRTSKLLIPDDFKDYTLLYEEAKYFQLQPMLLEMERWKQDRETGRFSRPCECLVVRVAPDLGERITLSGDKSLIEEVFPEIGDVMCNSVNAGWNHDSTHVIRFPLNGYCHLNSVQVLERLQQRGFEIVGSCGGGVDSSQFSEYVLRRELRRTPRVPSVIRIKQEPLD
Sequence of NIH3T3 cells transfected with FGFR2-TXLNA (P21802 with tags, fused parts or gaps isoform P21802-22 DEL37-62/R63G): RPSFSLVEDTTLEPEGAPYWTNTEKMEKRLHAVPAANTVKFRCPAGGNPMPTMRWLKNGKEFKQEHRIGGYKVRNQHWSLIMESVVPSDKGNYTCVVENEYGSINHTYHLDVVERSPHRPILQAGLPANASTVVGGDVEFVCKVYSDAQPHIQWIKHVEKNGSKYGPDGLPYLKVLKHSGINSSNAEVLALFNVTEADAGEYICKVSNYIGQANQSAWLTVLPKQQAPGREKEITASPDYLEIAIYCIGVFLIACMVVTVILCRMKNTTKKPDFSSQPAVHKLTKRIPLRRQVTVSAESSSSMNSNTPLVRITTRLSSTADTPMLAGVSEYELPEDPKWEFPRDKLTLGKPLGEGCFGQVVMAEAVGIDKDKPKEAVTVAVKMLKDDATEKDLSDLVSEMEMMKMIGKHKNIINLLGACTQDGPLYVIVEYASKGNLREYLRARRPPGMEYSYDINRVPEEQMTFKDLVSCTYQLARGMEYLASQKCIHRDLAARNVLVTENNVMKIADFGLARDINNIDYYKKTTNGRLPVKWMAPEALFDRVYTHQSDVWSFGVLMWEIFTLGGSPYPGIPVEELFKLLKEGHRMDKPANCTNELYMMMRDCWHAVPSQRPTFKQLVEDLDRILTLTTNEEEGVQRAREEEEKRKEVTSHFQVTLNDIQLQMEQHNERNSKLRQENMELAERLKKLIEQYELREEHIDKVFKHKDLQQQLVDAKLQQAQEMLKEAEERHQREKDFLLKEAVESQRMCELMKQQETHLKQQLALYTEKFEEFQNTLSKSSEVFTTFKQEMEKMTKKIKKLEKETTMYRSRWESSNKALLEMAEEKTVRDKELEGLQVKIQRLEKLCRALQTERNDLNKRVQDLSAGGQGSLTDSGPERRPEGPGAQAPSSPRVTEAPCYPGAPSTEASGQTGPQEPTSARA

SMILES	anchorage independent growth ([1]; final concentration 0.2 μM, soft agar, FIG. 5 and FIG. 6)	anchorage independent growth ([1]; final concentration 1.0 μM, FIG. 7)	anchorage independent growth [2]	anchorage independent growth [3]	phosphorylation of FGFR [4]	phosphorylation of MAPK [4]	RBW of the Compound A administration group/the RBW of the control group [5]
CCN1CCN(c2ccc(Nc3cc(N(C)C(=O)Nc4c(Cl)c(OC)cc(OC)c4Cl)ncn3)cc2)CC1 [BGJ398]	little suppressed	suppressed	significantly suppressed	significantly suppressed	suppressed	significantly suppressed	
CNC(=O)n1ccc2cc(Oc3ccnc(NC(=O)c4ccc(C5CCN(CCO)CC5)cc4)c3)c(OCCOC)cc21 [Compound A, 5-((2-(4-(1-(2-hydroxyethyl)piperidin-4-yl)benzamide)pyridin-4-yl)oxy)-6-(2-methoxyethoxy)-N-methyl-1H-indole-1-carboxamide 1.5 succinate]					suppressed	significantly suppressed	≥ 0.9
CCN(CC)CCCCNc1ncc2cc(-c3cc(OC)cc(OC)c3)c(NC(=O)NC(C)(C)C)nc2n1 [PD173074]					suppressed	significantly suppressed	
